{"source": "patent US9757408B2", "about": "(Hayashibara Co., Ltd., priority 2010, dated 2017)", "assay_type_in_all_cases": "in vivo, BALB/c mice", "key": {"[1]": {"test_system": "IL-12 in serum of mice administered with LPS", "assay": "Serum IL-12 in LPS-administered mice, ANO i.v. (Experiment 7)", "conditions": "LPS 18 mg/kg i.p., serum two hours after LPS", "procedure": "(§1) More specifically, 18 BALB/c female mice, 9-week-old, commercialized by Japan Charles River, Tokyo, Japan, were randomly divided into three groups, six heads each. An LPS specimen derived from E. coli (055:B5), commercialized by Sigma-Aldrich Corporation, St. Louis, Mo. USA, was dissolved in physiological saline and intraperitoneally administered to all the 6 mice in respective three groups at a dose of 18 mg/kg body weight of LPS (Experiment groups 1 to 3). […] To the six mice of the remaining one group was intravenously administered PBS in a liquid volume of 0.2 mL/head simultaneously with the administration of LPS (Experiment group 1).\n(§2) For the mice in each group, they were collected blood at two hours after the LPS administration, followed by assaying the level of TNF-α, IL-6, IL-10, and IL-12 in each serum and averaging the data for each group. For the assay of the level of TNF-α, the same ELISA as in Experiment 2 was used and for the assay of the level of IL-6, the same ELISA as in Experiment 3 was used. […]"}, "[2]": {"test_system": "mice with bacterial shock induced by LPS", "assay": "LPS bacterial shock mice, survival, ANO i.v. one hour after LPS (Experiment 8)", "conditions": "LPS 18 mg/kg i.p., ANO 135 mg/kg i.v. at one hour after LPS", "procedure": "An LPS specimen derived from E. coli ([…]), commercialized by Sigma-Aldrich Corporation, St. Louis, Mo. USA, was dissolved in PBS and intraperitoneally administered to all the seven mice in each group at a dose of 18 mg/kg body weight of LPS. […] For each group, the survival number of mice was confirmed up to 7 to 27 hours after administering LPS and determined the survival rate (%) of mice in each group."}, "[3]": {"test_system": "IL-6 in serum of mice administered with LPS", "assay": "Serum IL-6 in LPS-administered mice, oral administration (Experiment 11)", "conditions": "LPS 18 mg/kg i.p., serum 90 min after LPS", "procedure": "(§3) The seven mice in another one group were orally administered through a gastric tube with 3′-glucosyl-adenosine N1-oxide, which had been dissolved in PBS, at a dose of 200 mg/kg body weight in a liquid volume of 0.2 mL/head (Experiment group 4). The seven mice in the remaining one group were orally administered through a gastric tube with PBS in a liquid volume of 0.2 mL/head (Experiment group 1). All the mice were intraperitoneally administered with an LPS specimen derived from E. coli (055:B5), commercialized by Sigma-Aldrich Corporation, St. Louis, Mo. USA, which had been dissolved in PBS, at a dose of 18 mg/kg body weight (Experiment groups 1 to 4). For each group, the mice were collected blood from their tail veins at 90 min after administering LPS, followed by assaying the concentrations of TNF-α, IL-6, and IL-10 contained in serum by the same method as in […]."}, "[4]": {"test_system": "TNF-α in serum of mice administered with LPS", "assay": "Serum TNF-α in LPS-administered mice, ANO i.v. (Experiment 7)", "conditions": "LPS 18 mg/kg i.p., serum two hours after LPS", "procedure": "as §1, §2"}, "[5]": {"test_system": "lipopolysaccharide (LPS)-induced endotoxin shock mice", "assay": "LPS-induced endotoxin shock mice, survival, ANO i.v. simultaneously with LPS (Experiment 1)", "conditions": "LPS 15 mg/kg i.p.; for Survival rate (%) of mice, 7 Hours: 7 hours after LPS; for Survival rate (%) of mice, 19 Hours: 19 hours after LPS; for Survival rate (%) of mice, 26 Hours: 26 hours after LPS; for Survival rate (%) of mice, 43 Hours: 43 hours after LPS", "procedure": "USA, which had been dissolved in phosphate buffered saline (PBS) (Experiment groups 1 to 3). […] To the remaining five heads of another one group were intravenously administered with 0.2 mL/head of PBS simultaneously with the LPS administration (Experiment group 1). For each group, the survival number of mice was macroscopically observed up to 7 to 43 hours after the LPS administration, and based on this, the survival rate was determined for each group. The survival rate (%) of mice for each group was calculated by dividing the survival number of mice at each observation time with the survival number of mice at the initiation of this experiment, and multiplying the obtained value by 100."}, "[6]": {"test_system": "TNF-α in serum of mice administered with LPS", "assay": "Serum TNF-α in LPS-administered mice, oral administration (Experiment 11)", "conditions": "LPS 18 mg/kg i.p., serum 90 min after LPS", "procedure": "as §3"}}, "note": "Marks after values point to notes of the source that are not given here.", "data": [{"smiles": "Nc1c2ncn([C@@H]3O[C@H](CO)[C@@H](O)[C@H]3O)c2nc[n+]1[O-]", "note": "[ANO, adenosine N1-oxide]", "values": [{"measurement": "IL-12 Concentration", "setting": "[1]; ANO 68 mg/kg i.v.", "value": "136** pg/mL"}, {"measurement": "IL-12 Concentration", "setting": "[1]; ANO 135 mg/kg i.v.", "value": "105** pg/mL"}, {"measurement": "Survival rate (%) of mice, 7 Hours", "setting": "[2]; 7 hours", "value": 100, "unit": "%"}, {"measurement": "Survival rate (%) of mice, 22 Hours", "setting": "[2]; 22 hours", "value": 86, "unit": "%"}, {"measurement": "Survival rate (%) of mice, 27 Hours", "setting": "[2]; 27 hours", "value": 57, "unit": "%"}, {"measurement": "Amount of IL-6", "setting": "[3]; oral 100 mg/kg", "value": 17.5, "unit": "ng/mL"}, {"measurement": "Amount of IL-6", "setting": "[3]; oral 200 mg/kg", "value": "16.0* ng/mL"}, {"measurement": "TNF-α Concentration", "setting": "[4]; ANO 68 mg/kg i.v.", "value": "109** pg/mL"}, {"measurement": "TNF-α Concentration", "setting": "[4]; ANO 135 mg/kg i.v.", "value": "46** pg/mL"}, {"measurement": "Survival rate (%) of mice, 7 Hours", "setting": "[5]; ANO 15 mg/kg body weight i.v.", "value": 100, "unit": "%"}, {"measurement": "Survival rate (%) of mice, 19 Hours", "setting": "[5]; ANO 15 mg/kg body weight i.v.", "value": 100, "unit": "%"}, {"measurement": "Survival rate (%) of mice, 26 Hours", "setting": "[5]; ANO 15 mg/kg body weight i.v.", "value": 80, "unit": "%"}, {"measurement": "Survival rate (%) of mice, 43 Hours", "setting": "[5]; ANO 15 mg/kg body weight i.v.", "value": 80, "unit": "%"}, {"measurement": "Survival rate (%) of mice, 7 Hours", "setting": "[5]; ANO 45 mg/kg body weight i.v.", "value": 100, "unit": "%"}, {"measurement": "Survival rate (%) of mice, 19 Hours", "setting": "[5]; ANO 45 mg/kg body weight i.v.", "value": 100, "unit": "%"}, {"measurement": "Survival rate (%) of mice, 26 Hours", "setting": "[5]; ANO 45 mg/kg body weight i.v.", "value": 100, "unit": "%"}, {"measurement": "Survival rate (%) of mice, 43 Hours", "setting": "[5]; ANO 45 mg/kg body weight i.v.", "value": 80, "unit": "%"}, {"measurement": "Amount of TNF-α", "setting": "[6]; oral 100 mg/kg", "value": 1339, "unit": "pg/mL"}, {"measurement": "Amount of TNF-α", "setting": "[6]; oral 200 mg/kg", "value": "874* pg/mL"}]}]}
